pIC50: −log10 of the molar value.
Biological target: T1, c-Met kinase (recombinant c-Met) (Homo sapiens, UniProt P08581)
T1 construct: 0.27 nM recombinant c-Met
Experiment: In vitro kinase assay I (homogeneous time-resolved fluorescence tyrosine kinase assay)
Type: biochemical
Method: The kinase activities of c-Met are measured using a modified version of the homogeneous-time-resolved tyrosine kinase assay described by Park et al. (1999, Anal. Biochem. 269:94-104).
The procedure for determining the potency of a compound to inhibit c-Met kinase comprises the following steps: • 1. Prepare 3-fold serial diluted compound solutions in 100% dimethyl sulfoxide (DMSO) at 20× of the desired final concentrations in a 384-well plate. • 2. Prepare a master reaction mix containing 6.67 mM MgCl2, 133.3 mM NaCl, 66.7 mM Tris-HCl (pH 7.4), 0.13 mg/ml BSA, 2.67 mM dithiothreitol, 0.27 nM recombinant c-Met and 666.7 nM biotinylated synthetic peptide substrate (biotin-ahx-EQEDEPEGDYFEWLE-CONH2) (SEQ.ID.NO.:1). • 3. In a black assay plate, add 1.5 μl of compound solution (or DMSO) and 22.5 μl of master reaction mix per well. Initiate the kinase reaction by adding 6 μl of 0.25 mM MgATP per well. Allow the reactions to proceed for 60 min at room temperature. The final conditions for the reaction are 0.2 nM c-Met, 0.5 μM substrate, 50 μM MgATP, 5 mM MgCl2, 100 mM NaCl, 2 mM DTT, 0.1 mg/ml BSA, 50 mM Tris (pH 7.4) and 5% DMSO. • 4. Stop the kinase reaction with 30 μl of Stop/Detection buffer containing 10 mM EDTA, 25 mM HEPES, 0.1% TRITON X-100, 0.750 nM Eu-chelate labeled anti-phosphotyrosine antibody PY20 (cat. #AD0067, PerkinElmer) and 50 μg/ml Streptavidin-allophycocyanin conjugate (cat. #PJ25S, Prozyme). • 5. Read HTRF signals on a Victor reader (PerkinElmer) in HTRF mode after 60-min incubation at room temperature in the dark. • 6. IC50 is determined by fitting the observed relationship between compound concentration and HTRF signal with a 4-parameter logistic equation. II. GTL-16 pY1349 Cell-Based Assay

T1 sequence (P08581 25-1390): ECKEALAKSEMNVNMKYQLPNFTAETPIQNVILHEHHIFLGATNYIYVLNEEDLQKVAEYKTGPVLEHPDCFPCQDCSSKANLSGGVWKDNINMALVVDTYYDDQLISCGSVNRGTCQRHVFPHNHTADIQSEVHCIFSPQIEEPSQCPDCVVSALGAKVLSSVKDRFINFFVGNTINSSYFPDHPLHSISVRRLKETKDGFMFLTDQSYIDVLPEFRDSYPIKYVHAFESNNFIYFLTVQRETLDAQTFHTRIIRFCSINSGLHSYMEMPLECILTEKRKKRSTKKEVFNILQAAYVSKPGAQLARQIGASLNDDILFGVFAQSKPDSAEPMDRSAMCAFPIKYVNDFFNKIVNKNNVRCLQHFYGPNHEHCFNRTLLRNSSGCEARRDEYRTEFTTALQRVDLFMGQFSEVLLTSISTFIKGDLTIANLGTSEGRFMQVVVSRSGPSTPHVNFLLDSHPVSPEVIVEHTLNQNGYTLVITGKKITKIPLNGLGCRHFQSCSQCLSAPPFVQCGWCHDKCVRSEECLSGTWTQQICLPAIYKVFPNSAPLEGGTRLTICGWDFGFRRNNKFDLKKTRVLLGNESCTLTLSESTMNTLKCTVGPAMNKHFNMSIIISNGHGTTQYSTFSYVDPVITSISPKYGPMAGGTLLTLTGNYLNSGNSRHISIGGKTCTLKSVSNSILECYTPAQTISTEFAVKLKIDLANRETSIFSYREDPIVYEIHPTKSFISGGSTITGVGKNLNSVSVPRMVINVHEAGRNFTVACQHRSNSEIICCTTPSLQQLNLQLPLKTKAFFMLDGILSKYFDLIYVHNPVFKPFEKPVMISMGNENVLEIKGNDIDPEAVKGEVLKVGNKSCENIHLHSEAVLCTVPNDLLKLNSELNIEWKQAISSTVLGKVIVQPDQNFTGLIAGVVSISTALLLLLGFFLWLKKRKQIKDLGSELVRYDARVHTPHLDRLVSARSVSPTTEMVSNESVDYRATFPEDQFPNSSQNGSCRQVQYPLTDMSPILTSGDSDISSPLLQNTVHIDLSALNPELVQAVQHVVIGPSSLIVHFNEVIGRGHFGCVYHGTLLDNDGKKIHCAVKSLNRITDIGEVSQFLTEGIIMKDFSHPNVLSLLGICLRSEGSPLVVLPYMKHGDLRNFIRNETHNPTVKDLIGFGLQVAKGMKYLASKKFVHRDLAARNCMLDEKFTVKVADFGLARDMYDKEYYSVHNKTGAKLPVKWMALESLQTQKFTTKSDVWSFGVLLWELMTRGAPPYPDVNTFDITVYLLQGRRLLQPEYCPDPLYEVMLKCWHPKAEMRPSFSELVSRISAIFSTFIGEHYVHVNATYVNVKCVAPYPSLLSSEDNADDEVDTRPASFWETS

Compound | pIC50
Cn1cc(-n2ccc(=O)c(Cc3cccc(-c4ncc(N5CCCC(C#N)C5)cn4)c3)n2)cn1 (racemic) [Example 446, rac-1-[2-(3-{[1-(1-methyl-1H-pyrazol-4-yl)-4-oxo-1,4-dihydropyridazin-3-yl]methyl}phenyl)pyrimidin-5-yl]piperidine-3-carbonitrile] | > 7.00
COCC1CCCN(c2cnc(-c3cccc(Cc4nn(-c5cnn(C)c5)ccc4=O)c3)nc2)C1 (racemic) [Example 449, rac-3-(3-{5-[3-(methoxymethyl)piperidin-1-yl]pyrimidin-2-yl}benzyl)-1-(1-methyl-1H-pyrazol-4-yl)pyridazin-4(1H)-one] | > 7.00
Cn1cc(-n2ccc(=O)c(Cc3cccc(-c4ncc(NCC5CCOC5)cn4)c3)n2)cn1 (racemic) [Example 455, rac-1-(1-methyl-1H-pyrazol-4-yl)-3-(3-{5-[(tetrahydro-furan-3-ylmethyl)amino]pyrimidin-2-yl}benzyl)pyridazin-4(1H)-one] | > 7.00
Cn1cc(-n2ccc(=O)c(Cc3cccc(-c4ncc(N5CCCC(F)C5)cn4)c3)n2)cn1 (racemic) [Example 468, rac-3-{3-[5-(3-fluoro-piperidin-1-yl)pyrimidin-2-yl]benzyl)-1-(1-methyl-1H-pyrazol-4-yl)pyridazin-4(1H)-one] | > 7.00
CC1CCCN(c2cnc(-c3cccc(Cc4nn(-c5cnn(C)c5)ccc4=O)c3)nc2)C1 (racemic) [Example 469, rac-3-{3-[5-(3-methyl-piperidin-1-yl)pyrimidin-2-yl]benzyl}-1-(1-methyl-1H-pyrazol-4-yl)pyridazin-4(1H)-one] | > 7.00
Cn1cc(-n2ccc(=O)c(Cc3cccc(-c4ncc(C(=O)NCC5COCCO5)cn4)c3)n2)cn1 (racemic) [Example 474, rac-N-(1,4-Dioxan-2-ylmethyl)-2-(3-{[1-(1-methyl-1H-pyrazol-4-yl)-4-oxo-1,4-dihydropyridazin-3-yl]methyl}phenyl)pyrimidine-5-carboxamide] | > 7.00
Cn1cc(-n2ccc(=O)c(Cc3cccc(-c4ncc(C(=O)NCC5CCOC5)cn4)c3)n2)cn1 (racemic) [Example 475, rac-2-(3-{[1-(1-methyl-1H-pyrazol-4-yl) 4-oxo-1,4-dihydro-pyridazin-3-yl]methyl}phenyl)-N-(tetrahydro-furan-3-ylmethyl)pyrimidine-5-carboxamide] | > 7.00
Cn1cc(-n2ccc(=O)c(Cc3cccc(-c4ncc(C(=O)NCC5COCCO5)cn4)c3)n2)cn1 (racemic) [Example 476, rac-N-(1,4-dioxan-2-ylmethyl)-2-(3-{[1-(1-methyl-1H-pyrazol-4-yl)-4-oxo-1,4-dihydro-pyridazin-3-yl]methyl}phenyl)pyrimidine-5-carboxamide] | > 7.00
O=C(Nc1cccc(Cc2nn(-c3cc(F)cc(F)c3)ccc2=O)c1)OCC1COCCO1 (racemic) [Example 520, rac-1,4-dioxan-2-ylmethyl (3-{[1-(3,5-difluorophenyl)-4-oxo-1,4-dihydropyridazin-3-yl]methyl}phenyl)carbamate] | > 7.00
Cn1cc(-n2ccc(=O)c(Cc3cccc(NC(=O)OCC4CCOC4)c3)n2)cn1 (racemic) [Example 542, rac-tetrahydrofuran-3-ylmethyl (3-{[1-(1-methyl-1H-pyrazol-4-yl)-4-oxo-1,4-dihydropyridazin-3-yl]methyl}phenyl)carbamate] | > 7.00
Cn1cc(-n2ccc(=O)c(Cc3cccc(NC(=O)OCC4CCCCO4)c3)n2)cn1 (racemic) [Example 563, rac-tetrahydro-2H-pyran-2-ylmethyl (3-{[1-(1-methyl-1H-pyrazol-4-yl)-4-oxo-1,4-dihydropyridazin-3-yl]methyl}phenyl)carbamate] | > 7.00
CCC(C)COC(=O)Nc1cccc(Cc2nn(-c3cnn(C)c3)ccc2=O)c1 (racemic) [Example 573, rac-2-methylbutyl (3-{[1-(1-methyl-1H-pyrazol-4-yl)-4-oxo-1,4-dihydropyridazin-3-yl]methyl}phenyl)carbamate] | > 7.00
Cn1cc(-n2ccc(=O)c(Cc3cccc(NC(=O)OCC4CCO4)c3)n2)cn1 (racemic) [Example 578, rac-oxetan-2-ylmethyl (3-{[1-(1-methyl-1H-pyrazol-4-yl)-4-oxo-1,4-dihydropyridazin-3-yl]methyl}phenyl)carbamate] | > 7.00
CCC(COC(=O)Nc1cccc(Cc2nn(-c3cccc(C#N)c3)ccc2=O)c1)OC (racemic) [Example 581, rac-2-methoxybutyl (3-{[1-(3-cyanophenyl)-4-oxo-1,4-dihydropyridazin-3-yl]methyl}phenyl)carbamate] | > 7.00

Further lines, results first:

pIC50 | Compound
> 7.00 | Cn1cc(-n2ccc(=O)c(Cc3cccc(-c4ncc(N5CCC(O)C5)cn4)c3)n2)cn1 (racemic) [Example 440, rac-3-{3-[5-(3-Hydroxypyrrolidin-1-yl)pyrimidin-2-yl]benzyl}-1-(1-methy 1H-pyrazol-4-yl)pyridazin-4(1H)-one]
> 7.00 | CC1COCCN1c1cnc(-c2cccc(Cc3nn(-c4cnn(C)c4)ccc3=O)c2)nc1 (racemic) [Example 450, rac-3-{3-[5-(3-methylmorpholin-4-yl)pyrimidin-2-yl]benzyl}-1-(1-methyl-1H-pyrazol-4-yl)pyridazin-4(1H)-one]
> 7.00 | Cn1cc(-n2ccc(=O)c(Cc3cccc(-c4ncc(NC(=O)C5CCCO5)cn4)c3)n2)cn1 (racemic) [Example 462, rac-N-[2-(3-{[1-(1-methyl-1H-pyrazol-4-yl)-4-oxo-1,4-dihydro-pyridazin-3-yl}methyl}phenyl)pyrimidin-5-yl]tetra-hydrofuran-2-carboxamide]
6.00 to 7.00 | Cn1cc(-n2ccc(=O)c(Cc3cccc(-c4ncc(NC(=O)CC5CCCO5)cn4)c3)n2)cn1 (racemic) [Example 464, rac-N-[2-(3-{[1-(1-methyl-1H-pyrazol-4-yl)-4-oxo-1,4-dihydro-pyridazin-3-yl]methyl}phenyl)pyrimidin-5-yl]-2-(tetrahydro-furan-2-yl)acetamide]
> 7.00 | Cn1cc(-n2ccc(=O)c(Cc3cccc(-c4ncc(C(=O)NCC5CCCOC5)cn4)c3)n2)cn1 (racemic) [Example 478, rac-2-(3-{[1-(1-methyl-1H-pyrazol-4-yl)-4-oxo-1,4-dihydro-pyridazin-3-yl]methyl}phenyl)-N-tetrahydro-2H-pyran-3-ylmethyl)pyrimidine-5-carboxamide]
> 7.00 | Cn1cc(-n2ccc(=O)c(Cc3cccc(-c4ncc(C(=O)NCC5CCCO5)cn4)c3)n2)cn1 (racemic) [Example 483, rac-2-(3-{[1-(1-methyl-1H-pyrazol-4-yl)-4-oxo-1,4-dihydro-pyridazin-3-yl]methyl}phenyl)-N-(tetrahydro-furan-2-ylmethyl)pyrimidine-5-carboxamide]
> 7.00 | O=C(Nc1cccc(Cc2nn(-c3cc(F)c(F)c(F)c3)ccc2=O)c1)OCC1COCCO1 (racemic) [Example 513, rac-1,4-dioxan-2-ylmethyl (3-{[4-oxo-1-(3,4,5-trifluorophenyl)-1,4-dihydropyridazin-3-yl]methyl}phenyl)carbamate]
> 7.00 | O=C(Nc1cccc(Cc2nn(-c3cc(F)c(F)c(F)c3)ccc2=O)c1)OCC1CCOC1 (racemic) [Example 559, rac-tetrahydrofuran-3-ylmethyl (3-{[4-oxo-1-(3,4,5-trifluorophenyl)-1,4-dihydropyridazin-3-yl]methyl}phenyl)carbamate]
> 7.00 | Cn1cc(-n2ccc(=O)c(Cc3cccc(NC(=O)OCC4CCCO4)c3)n2)cn1 (racemic) [Example 562, rac-tetrahydrofuran-2-ylmethyl (3-{[1-(1-methyl-1H-pyrazol-4-yl)-4-oxo-1,4-dihydropyridazin-3-yl]methyl}phenyl)carbamate]
> 7.00 | Cn1cc(-n2ccc(=O)c(Cc3cccc(NC(=O)OCC4COCCO4)c3)n2)cn1 (racemic) [Example 568, rac-1,4-dioxan-2-ylmethyl (3-{[1-(1-methyl-1H-pyrazol-4-yl)-4-oxo-1,4-dihydropyridazin-3-yl]methyl}phenyl)carbamate]
> 7.00 | Cn1cc(-n2ccc(=O)c(Cc3cccc(NC(=O)OCC4CCCOC4)c3)n2)cn1 (racemic) [Example 569, rac-tetrahydro-2H-pyran-3-ylmethyl (3-{[1-(1-methyl-1H-pyrazol-4-yl)-4-oxo-1,4-dihydropyridazin-3-yl]methyl}phenyl)carbamate]
> 7.00 | N#Cc1cccc(-n2ccc(=O)c(Cc3cccc(NC(=O)OCC4CCOC4)c3)n2)c1 (racemic) [Example 583, rac-tetrahydrofuran-3-ylmethyl (3-{[1-(3-cyanophenyl)-4-oxo-1,4-dihydropyridazin-3-yl]methyl}phenyl)carbamate]

From patent US20120264735A1 (priority 2009, published 2012)
